Data from patent publication US20220280594A1, “APPLICATION OF POLYPEPTIDE OR DERIVATIVE THEREOF” (CHENGDU HUITAI BIOMEDICINE CO., LTD., priority 2019, published 2022).
Ends that are not written are not given here. PEG = not defined here

What was measured:
Assay type in all cases: cell-based
[1] = tested on: human breast cancer cells (MCF-7); assay: scratch assay, migration of MCF-7 cells; settings: MCF-7, 10 μM, 48 hours; control group 30.97 ± 1.79
Outline: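 MCF-7 monolayers scratched, then cultured 48 hours in 2% FBS medium with test peptide at 10 μM versus PBS control, triplicate wells. Migration rate (%) = (original − current scratch width)/original width × 100, measured from images.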

[2] = tested on: human liver cancer cells (HepG2); assay: scratch assay, migration of HepG2 cells; settings: HepG2, 10 μM, 48 hours; control group 71.01 ± 6.63
Outline: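 HepG2 monolayers scratched, then cultured 48 h in 2% FBS medium with test polypeptides at 10 μM versus PBS control, triplicate wells. Migration rate (%) computed from original versus current scratch width in images.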

[3] = tested on: human prostate cancer cells (22RV1); assay: scratch assay, migration of 22RV1 cells; settings: 22RV1, 10 μM, 48 hours; control group 25.41 ± 5.01
Outline: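 22RV1 monolayers (seeded 1-2×10^5 cells/well) were scratched, washed, then given 2% FBS medium with 10 μM polypeptide or PBS, triplicate wells, for 48 h. Migration rate (%) = (original − current scratch width)/original width ×100, from ≥3 images per well.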

[4] = tested on: human thyroid cancer cells (FRO); assay: scratch assay, migration of FRO cells; settings: 10 μM, 48 hours, control group 60.34 ± 8.32
Outline: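 FRO monolayers were scratched, washed, and cultured 48 h in 2% FBS medium with polypeptide derivatives at 10 μM or PBS control, three wells per group. Migration rate (%) = (original − current scratch width)/original width × 100, measured from images.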

[5] = tested on: human colon cancer cells (HCT-116); assay: scratch assay, migration of HCT-116 cells; settings: HCT-116, 10 μM, 48 hours; control group 47.78 ± 6.07
Outline: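 Confluent HCT-116 monolayers were scratched, washed and cultured 48 h in 2% FBS medium with peptide at 10 μM versus PBS control, triplicate wells. Migration rate (%) = (original minus current scratch width)/original width × 100, from at least 3 images per well.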

[6] = tested on: human oral epidermoid carcinoma KB cells; assay: scratch assay, migration of KB cells; settings: 10 μM, 48 hours, control group 54.03 ± 4.21
Outline: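 Monolayers of KB cells were scratched, washed with PBS, then cultured 48 hours in 2% FBS medium containing test polypeptide (10 μM) or PBS control, in triplicate wells. From images, migration rate (%) = (original − current scratch width)/original width × 100.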

[7] = tested on: human lung squamous carcinoma cells (NCI-H226); assay: scratch assay, migration of NCI-H226 cells; settings: NCI-H226, 10 μM, 48 hours; control group 65.31 ± 3.19
Outline: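 A straight scratch was made in confluent NCI-H226 monolayers (1-2×10^5 cells/well). Cells were then kept 48 h in 2% FBS medium with 10 μM polypeptide or PBS control, triplicate wells. Migration rate (%) = (original − current scratch width)/original width ×100, from imaged scratch widths.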

[8] = tested on: human pharyngeal squamous-cell carcinoma cells (Fadu); assay: scratch assay, migration of Fadu cells; settings: 10 μM, 48 hours, control group 28.76 ± 4.08
Outline: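 Confluent Fadu monolayers scratched, then cultured 48 h with 10 μM polypeptide in medium with 2% FBS; PBS control, triplicate wells. Migration rate (%) = (original − current scratch width)/original width × 100, from ≥3 images per well.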

[9] = tested on: human pancreatic cancer cells (PANC-1); assay: scratch assay, migration of PANC-1 cells; settings: PANC-1, 10 μM, 48 hours; control group 66.65 ± 3.37
Outline: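 PANC-1 monolayers were scratched, then cultured for 48 h with 10 μM test compound in 2% FBS medium, in three parallel wells per group against a PBS control. Migration rate (%) was calculated as (original minus current scratch width) / original width × 100, from imaged wells.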

[10] = tested on: human melanoma cells (A375); assay: scratch assay, migration of A375 cells; settings: A375, 10 μM, 48 hours; control group 44.03 ± 6.21
Outline: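 Monolayers scratched, washed with PBS and cultured 48 hours in 2% FBS medium with polypeptides N1-N54 at 10 μM or PBS control, three wells per group. Migration rate (%) = (original − current scratch width)/original width×100, from imaged scratch widths.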

[11] = tested on: human breast cancer cells (MDA-MB-231); assay: scratch assay, migration of MDA-MB-231 cells; settings: MDA-MB-231, 10 μM, 48 hours; control group 36.19 ± 5.15
Outline: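 MDA-MB-231 monolayers (1-2×10^5 cells/well) were scratched, then kept 48 h in medium with 2% FBS containing polypeptide at 10 μM, with a PBS control, in triplicate wells. Migration rate (%) was taken from scratch width: (original − current)/original ×100.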

[12] = tested on: human breast cancer cells (MDA-MB-453); assay: scratch assay, migration of MDA-MB-453 cells; settings: MDA-MB-453, 10 μM, 48 hours; control group 32.42 ± 2.04
Outline: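 Confluent MDA-MB-453 monolayers were scratched, then treated with peptide at 10 μM in 2% FBS medium for 48 h, with a PBS control and triplicate wells. Migration rate (%) was taken as (original − current scratch width)/original width ×100 from images.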

[13] = tested on: human non-small cell lung cancer cells (A549); assay: scratch assay, migration of A549 cells; settings: A549, 10 μM, 48 hours; control group 75.31 ± 8.19
Outline: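 Confluent A549 monolayers in 24-well plates were scratched, washed with PBS, then cultured 48 h in 2% FBS medium with peptide at 10 μM or PBS control, triplicate wells. Scratch width measured from images; migration rate (%) = (original − current width)/original width × 100.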

[14] = tested on: human lung cancer cells (95D); assay: scratch assay, migration of 95D cells; settings: 10 μM, 48 hours, control group 55.3 ± 3.19
Outline: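 Confluent 95D monolayers were scratched, washed with PBS and cultured 48 h in 2% FBS medium containing peptide (10 μM) or PBS control, in triplicate wells. Scratch width was measured on images; migration rate (%) = (original width − current width)/original width × 100.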

Substance	Migration rate (%) (mean ± SD, P) [1]	Migration rate (%) (mean ± SD, P) [2]	Migration rate (%) (mean ± SD, P) [3]	Migration rate (%) (mean ± SD, P) [4]	Migration rate (%) (mean ± SD, P) [5]	Migration rate (%) (mean ± SD, P) [6]	Migration rate (%) (mean ± SD, P) [7]	Migration rate (%) (mean ± SD, P) [8]	Migration rate (%) (mean ± SD, P) [9]	Migration rate (%) (mean ± SD, P) [10]	Migration rate (%) (mean ± SD, P) [11]	Migration rate (%) (mean ± SD, P) [12]	Migration rate (%) (mean ± SD, P) [13]	Migration rate (%) (mean ± SD, P) [14]
N1: polypeptide with the amino acid sequence set forth in SEQ ID NO: 1 (YRVRFLAKENVTQDAEDN)	11.18 ± 2.89,** %	17.42 ± 7.70,*** %	7.26 ± 3.36,** %	7.45 ± 2.78,*** %	10.27 ± 3.64,*** %	7.49 ± 2.99,*** %	12.68 ± 9.07,*** %	5.68 ± 2.86,*** %	18.89 ± 6.68,*** %	8.49 ± 2.99,*** %	21.83 ± 3.73,* %	13.05 ± 2.05,** %	18.26 ± 8.77,** %	27.31 ± 4.35,** %
N54: SEQ ID NO: 1 with A7R, addition of two amino acids and PEG modification at the carboxyl terminal (YRVRFLRKENVTQDAEDNTC-{PEG}; reading uncertain)	16.52 ± 2.93,* %	46.62 ± 3.73,** %	12.94 ± 2.70,* %	8.26 ± 3.47%	26.50 ± 3.99,** %	6.91 ± 3.44,*** %	24.66 ± 5.13,*** %	15.88 ± 5.38,* %	16.62 ± 5.73,*** %	16.91 ± 3.21,** %	13.37 ± 5.89,** %	3.19 ± 1.08,*** %	54.66 ± 4.73,* %	24.66 ± 6.13,** %
N3: SEQ ID NO: 1 with deletion of position 18 and PEG modification at the amino terminal ({PEG}-YRVRFLAKENVTQDAED; reading uncertain)	10.39 ± 2.07,** %	17.57 ± 6.98,*** %	6.15 ± 4.65,** %	3.51 ± 1.34,*** %	22.06 ± 4.59,** %	9.95 ± 2.19,*** %	16.38 ± 6.85,*** %	12.97 ± 3.58,** %	29.67 ± 5.64,*** %	4.91 ± 1.19,*** %	21.98 ± 2.74,* %	13.04 ± 3.5,** %	51.86 ± 2.15,** %	30.19 ± 5.91,** %
N31: SEQ ID NO: 1 with deletion of positions 3, 4, 11 and 15-18 and PEG modification at the carboxyl terminal (YRFLAKENTQD-{PEG}; reading uncertain)	9.27 ± 2.23,** %	13.64 ± 7.59,*** %	12.40 ± 2.24,* %	9.77 ± 1.96,*** %	7.39 ± 2.06,*** %	7.17 ± 1.67,*** %	15.70 ± 8.17,*** %	12.13 ± 5.10,** %	13.64 ± 7.59,*** %	12.5 ± 2.29,*** %	18.7 ± 3.05,* %	10.49 ± 3.13,*** %	24.44 ± 8.15,** %	25.70 ± 3.17,** %
N29: SEQ ID NO: 1 with deletion of positions 1-5 and 15-18 and PEG modification at the amino terminal ({PEG}-LAKENVTQD; reading uncertain)	19.15 ± 3.04,* %	10.62 ± 8.97,*** %	9.99 ± 3.89,* %	5.12 ± 2.67,*** %	8.24 ± 2.32,*** %	8.07 ± 1.79,*** %	40.30 ± 4.81,** %	12.27 ± 2.23,** %	40.62 ± 4.97,* %	14.01 ± 4.22,*** %	18 ± 4.47,* %	13.73 ± 3.29,** %	20.55 ± 3.73,*** %	30.30 ± 4.81,** %
N14: SEQ ID NO: 1 with deletion of positions 1-5 and addition of one amino acid at the carboxyl terminal (LAKENVTQDAEDNC)	7.05 ± 1.40,*** %	48.61 ± 4.63,** %	14.06 ± 2.37,* %	14.09 ± 2.47,*** %	12.24 ± 2.32,*** %	11.22 ± 2.66,*** %	19.97 ± 2.94,*** %	12.90 ± 2.47,** %	26.63 ± 6.67,*** %	6.28 ± 1.12,*** %	14.59 ± 5.36,* %	7.58 ± 2.34,*** %	15.27 ± 8.75,*** %	32.55 ± 5.71,** %
